{
  "source": "paper PMC5218480",
  "about": "(PLoS ONE, 2017)",
  "test_system": "MV-4-11 cells",
  "assay": "Gene expression microarray analysis (Affymetrix PrimeView) and GSEA",
  "type": "cell-based, human",
  "parameters": "RFU PODN (11730768_x_at) / Fold change /veh PODN (11730768_x_at) / RFU LINC00158 (11744669_a_at) / Fold change /veh LINC00158 (11744669_a_at) / RFU DUSP10 (11751237_a_at) / Fold change /veh DUSP10 (11751237_a_at) / RFU ID3 (11757404_x_at) / Fold change /veh ID3 (11757404_x_at) / RFU PLEKHG5 (11737974_s_at) / Fold change /veh PLEKHG5 (11737974_s_at) / RFU LRRC4B (11730491_at) / Fold change /veh LRRC4B (11730491_at) / RFU GIMAP4 (11747438_a_at) / Fold change /veh GIMAP4 (11747438_a_at) / RFU KRT8 (11758183_x_at) / Fold change /veh KRT8 (11758183_x_at) / RFU CNN1 (11734310_a_at) / Fold change /veh CNN1 (11734310_a_at) / RFU VPS37D (11726825_at) / Fold change /veh VPS37D (11726825_at) / RFU C10orf10 (11716522_x_at) / Fold change /veh C10orf10 (11716522_x_at) / RFU KIR2DL2 /// KIR2DL4 /// KIR2DL5A /// KIR2DL5B /// KIR2DS1 /// KIR2DS2 /// KIR2DS3 /// KIR2DS4 /// KIR3DL3 /// KIR3DL3 /// KIR3DS1 (11738374_at) / Fold change /veh KIR2DL2 /// KIR2DL4 /// KIR2DL5A /// KIR2DL5B /// KIR2DS1 /// KIR2DS2 /// KIR2DS3 /// KIR2DS4 /// KIR3DL3 /// KIR3DL3 /// KIR3DS1 (11738374_at) / RFU C1QL1 (11718748_at) / Fold change /veh C1QL1 (11718748_at) / RFU TMPRSS4 (11747572_a_at) / Fold change /veh TMPRSS4 (11747572_a_at) / RFU HAMP (11756126_x_at) / Fold change /veh HAMP (11756126_x_at) / RFU RNFT2 (11725882_a_at) / Fold change /veh RNFT2 (11725882_a_at) / RFU NR4A2 (11747474_a_at) / Fold change /veh NR4A2 (11747474_a_at) / RFU ABCC12 (11746883_a_at) / Fold change /veh ABCC12 (11746883_a_at) / RFU TMEM136 (11760407_x_at) / Fold change /veh TMEM136 (11760407_x_at) / RFU CLDN22 /// WWC2 (11732394_at) / Fold change /veh CLDN22 /// WWC2 (11732394_at) / RFU HLA-DPB1 (11760878_x_at) / Fold change /veh HLA-DPB1 (11760878_x_at) / RFU SPINT1 (11716480_a_at) / Fold change /veh SPINT1 (11716480_a_at) / RFU GAP43 (11754022_s_at) / Fold change /veh GAP43 (11754022_s_at) / RFU A4GNT (11735810_at) / Fold change /veh A4GNT (11735810_at) / RFU PRB3 (11715151_x_at) / Fold change /veh PRB3 (11715151_x_at) / RFU TUBB4B (11761932_at) / Fold change /veh TUBB4B (11761932_at) / RFU CAPN14 (11732068_a_at) / Fold change /veh CAPN14 (11732068_a_at) / RFU TMCC2 (11721928_a_at) / Fold change /veh TMCC2 (11721928_a_at) / RFU IRGQ (11745062_a_at) / Fold change /veh IRGQ (11745062_a_at) / RFU FAM174B (11720279_a_at) / Fold change /veh FAM174B (11720279_a_at) / RFU TMPRSS4 (11748680_a_at) / Fold change /veh TMPRSS4 (11748680_a_at) / RFU FAM212B (11763350_a_at) / Fold change /veh FAM212B (11763350_a_at) / RFU PLEKHG5 (11743358_a_at) / Fold change /veh PLEKHG5 (11743358_a_at) / RFU ZSCAN30 (11745921_a_at) / Fold change /veh ZSCAN30 (11745921_a_at) / RFU CMKLR1 (11741424_a_at) / Fold change /veh CMKLR1 (11741424_a_at) / RFU LOC101060620 /// MAPK8IP1 (11723275_at) / Fold change /veh LOC101060620 /// MAPK8IP1 (11723275_at) / RFU SPTSSB (11747773_x_at) / Fold change /veh SPTSSB (11747773_x_at) / RFU PRSS12 (11739890_at) / Fold change /veh PRSS12 (11739890_at) / RFU BIN1 (11741810_x_at) / Fold change /veh BIN1 (11741810_x_at) / RFU WNT11 (11732464_a_at) / Fold change /veh WNT11 (11732464_a_at) / RFU C10orf10 (11716521_a_at) / Fold change /veh C10orf10 (11716521_a_at) / RFU C5orf56 (11738089_at) / Fold change /veh C5orf56 (11738089_at) / RFU CYB561 (11721691_x_at) / Fold change /veh CYB561 (11721691_x_at) / RFU ANKRD19P (11752326_a_at) / Fold change /veh ANKRD19P (11752326_a_at) / RFU OR2T12 /// OR2T33 /// OR2T8 (11738714_s_at) / Fold change /veh OR2T12 /// OR2T33 /// OR2T8 (11738714_s_at) / RFU VCAN (11748164_a_at) / Fold change /veh VCAN (11748164_a_at) / RFU JSRP1 (11732532_at) / Fold change /veh JSRP1 (11732532_at) / RFU KRTAP10-11 (11738290_x_at) / Fold change /veh KRTAP10-11 (11738290_x_at) / RFU MYO3A (11730013_a_at) / Fold change /veh MYO3A (11730013_a_at) / RFU EBF3 (11725865_a_at) / Fold change /veh EBF3 (11725865_a_at) / RFU CAMK2N1 (11719241_x_at) / Fold change /veh CAMK2N1 (11719241_x_at) / RFU C5orf56 (11738088_a_at) / Fold change /veh C5orf56 (11738088_a_at) / RFU OLFML3 (11715873_a_at) / Fold change /veh OLFML3 (11715873_a_at) / RFU LOC100653217 /// NTM (11731650_a_at) / Fold change /veh LOC100653217 /// NTM (11731650_a_at) / RFU MAPK11 (11762145_a_at) / Fold change /veh MAPK11 (11762145_a_at) / RFU FIZ1 (11724087_x_at) / Fold change /veh FIZ1 (11724087_x_at) / RFU OASL (11726364_x_at) / Fold change /veh OASL (11726364_x_at) / RFU SOX15 (11748057_x_at) / Fold change /veh SOX15 (11748057_x_at) / RFU CD79A (11719716_a_at) / Fold change /veh CD79A (11719716_a_at) / RFU HIST1H1D (11736915_at) / Fold change /veh HIST1H1D (11736915_at) / RFU CASKIN2 (11723855_a_at) / Fold change /veh CASKIN2 (11723855_a_at) / RFU LOC730098 (11760151_x_at) / Fold change /veh LOC730098 (11760151_x_at) / RFU OR4N2 (11742367_at) / Fold change /veh OR4N2 (11742367_at) / RFU PRRT2 (11749266_a_at) / Fold change /veh PRRT2 (11749266_a_at) / RFU SNX32 (11753110_a_at) / Fold change /veh SNX32 (11753110_a_at) / RFU CDHR5 (11726645_a_at) / Fold change /veh CDHR5 (11726645_a_at) / RFU RCAN1 (11760418_a_at) / Fold change /veh RCAN1 (11760418_a_at) / RFU FAM167A (11723789_a_at) / Fold change /veh FAM167A (11723789_a_at) / RFU FAM26E (11764081_at) / Fold change /veh FAM26E (11764081_at) / RFU ISYNA1 (11749810_s_at) / Fold change /veh ISYNA1 (11749810_s_at) / RFU ACY1 (11761880_at) / Fold change /veh ACY1 (11761880_at) / RFU 11764098_at / Fold change /veh 11764098_at / RFU SAMD14 (11745864_x_at) / Fold change /veh SAMD14 (11745864_x_at) / RFU NPB (11741838_a_at) / Fold change /veh NPB (11741838_a_at) / RFU TMPRSS6 (11731388_a_at) / Fold change /veh TMPRSS6 (11731388_a_at) / RFU KRTAP10-2 (11738614_at) / Fold change /veh KRTAP10-2 (11738614_at) / RFU ARHGAP8 /// PRR5-ARHGAP8 (11727945_x_at) / Fold change /veh ARHGAP8 /// PRR5-ARHGAP8 (11727945_x_at) / RFU KRTAP5-7 /// NADSYN1 (11734609_at) / Fold change /veh KRTAP5-7 /// NADSYN1 (11734609_at) / RFU RASL12 (11751679_a_at) / Fold change /veh RASL12 (11751679_a_at) / RFU CDKN2B (11736163_a_at) / Fold change /veh CDKN2B (11736163_a_at) / RFU PRF1 (11729649_at) / Fold change /veh PRF1 (11729649_at) / RFU, ZNF638 /// ZNF638-IT1 / Fold change vs veh, ZNF638 /// ZNF638-IT1 / RFU, PANK3 / Fold change vs veh, PANK3 / RFU, SH3YL1 / Fold change vs veh, SH3YL1 / RFU, ZEB2 / Fold change vs veh, ZEB2 / RFU, NRIP1 / Fold change vs veh, NRIP1 / RFU, PTTG1IP / Fold change vs veh, PTTG1IP / RFU, CAPN2 / Fold change vs veh, CAPN2 / RFU, MED14 / Fold change vs veh, MED14 / RFU, SNORA58 / Fold change vs veh, SNORA58 / RFU, C1orf63 / Fold change vs veh, C1orf63 / RFU, LRRFIP1 / Fold change vs veh, LRRFIP1 / RFU, NDUFAF7 / Fold change vs veh, NDUFAF7 / RFU, SLC12A2 / Fold change vs veh, SLC12A2 / RFU, IBTK / Fold change vs veh, IBTK / RFU, ESF1 / Fold change vs veh, ESF1 / Fold change vs veh, TMEM50B / RFU, TAOK1 / Fold change vs veh, TAOK1 / RFU, ACBD3 / Fold change vs veh, ACBD3 / RFU, TMA16 / Fold change vs veh, TMA16 / RFU, RWDD3 / Fold change vs veh, RWDD3 / RFU, BCAT1 / Fold change vs veh, BCAT1 / RFU, EDEM3 / Fold change vs veh, EDEM3 / RFU, TMEM33 / Fold change vs veh, TMEM33 / RFU, WDR75 / Fold change vs veh, WDR75 / RFU, AHCTF1 / Fold change vs veh, AHCTF1 / RFU, TFRC / Fold change vs veh, TFRC / RFU, ZDHHC17 / Fold change vs veh, ZDHHC17 / RFU, NOM1 / Fold change vs veh, NOM1 / RFU, ARL8B / Fold change vs veh, ARL8B / RFU, ZBTB11 / Fold change vs veh, ZBTB11 / RFU, TAMM41 / Fold change vs veh, TAMM41 / RFU, KIAA1704 /// LOC100996395 / Fold change vs veh, KIAA1704 /// LOC100996395 / RFU, ING1 / Fold change vs veh, ING1 / RFU, TRMT61B / Fold change vs veh, TRMT61B / RFU, FUBP3 / Fold change vs veh, FUBP3 / RFU, TP53 / Fold change vs veh, TP53 / RFU, TNKS2 / Fold change vs veh, TNKS2 / RFU, ZFP14 / Fold change vs veh, ZFP14 / RFU, ACTR2 / Fold change vs veh, ACTR2 / RFU, PPP3R1 / Fold change vs veh, PPP3R1 / RFU, PIK3R1 / Fold change vs veh, PIK3R1 / RFU, HNRNPA1 / Fold change vs veh, HNRNPA1 / RFU, RNF170 / Fold change vs veh, RNF170 / RFU, ZNF28 / Fold change vs veh, ZNF28 / RFU, RNGTT / Fold change vs veh, RNGTT / RFU, OGT / Fold change vs veh, OGT / RFU, BRD1 / Fold change vs veh, BRD1 / RFU, MARS / Fold change vs veh, MARS / RFU, ZNF655 / Fold change vs veh, ZNF655 / RFU, FAHD1 / Fold change vs veh, FAHD1 / RFU, BDP1 / Fold change vs veh, BDP1 / RFU, LRRCC1 / Fold change vs veh, LRRCC1 / RFU, ARID1A / Fold change vs veh, ARID1A / RFU, ZNF146 / Fold change vs veh, ZNF146 / RFU, ZNF330 / Fold change vs veh, ZNF330 / RFU, GPN3 / Fold change vs veh, GPN3 / RFU, C9orf123 / Fold change vs veh, C9orf123 / RFU, N4BP2L2 / Fold change vs veh, N4BP2L2 / RFU, ARFIP1 / Fold change vs veh, ARFIP1 / RFU, FAM179B / Fold change vs veh, FAM179B / RFU, BCL10 / Fold change vs veh, BCL10 / RFU, UHRF1BP1L / Fold change vs veh, UHRF1BP1L / RFU, BET1 / Fold change vs veh, BET1 / RFU, CNOT2 / Fold change vs veh, CNOT2 / RFU, ZNF268 / Fold change vs veh, ZNF268 / Fold change vs veh, ZNF507 / RFU, DGCR2 / Fold change vs veh, DGCR2 / RFU, WDSUB1 / Fold change vs veh, WDSUB1 / Fold change vs veh, HSP90B1 /// MIR3652 / RFU, ADSS / Fold change vs veh, ADSS / RFU, GK / Fold change vs veh, GK / RFU, ZNF148 / Fold change vs veh, ZNF148 / RFU, TAF9 / Fold change vs veh, TAF9 / RFU, SLC1A5 / Fold change vs veh, SLC1A5 / RFU, SLMO2 / Fold change vs veh, SLMO2 / RFU, ABCC4 / Fold change vs veh, ABCC4 / RFU, LOC101060439 /// RAP1B / Fold change vs veh, LOC101060439 /// RAP1B / RFU, RFX7 / Fold change vs veh, RFX7 / RFU, GTPBP10 / Fold change vs veh, GTPBP10 / RFU, CNEP1R1 / Fold change vs veh, CNEP1R1 / RFU, BIVM-ERCC5 /// ERCC5 / Fold change vs veh, BIVM-ERCC5 /// ERCC5 / RFU, ILF3 / Fold change vs veh, ILF3 / RFU 11762660_at / Fold change /veh 11762660_at / RFU VCAN (11757783_s_at) / Fold change /veh VCAN (11757783_s_at) / RFU DDX43 (11728927_at) / Fold change /veh DDX43 (11728927_at) / RFU KRT8 (11758188_x_at) / Fold change /veh KRT8 (11758188_x_at) / RFU NKD1 (11759106_at) / Fold change /veh NKD1 (11759106_at) / RFU SRD5A1 (11742802_a_at) / Fold change /veh SRD5A1 (11742802_a_at) / RFU TPSAB1 /// TPSB2 (11721975_s_at) / Fold change /veh TPSAB1 /// TPSB2 (11721975_s_at) / RFU GSTM3 (11746129_a_at) / Fold change /veh GSTM3 (11746129_a_at) / RFU IL23R (11737362_x_at) / Fold change /veh IL23R (11737362_x_at) / RFU TMEM51 (11727254_a_at) / Fold change /veh TMEM51 (11727254_a_at) / RFU PIWIL2 (11732686_x_at) / Fold change /veh PIWIL2 (11732686_x_at) / RFU ORM1 (11744905_x_at) / Fold change /veh ORM1 (11744905_x_at) / RFU CCDC152 (11743942_at) / Fold change /veh CCDC152 (11743942_at) / RFU ECM1 (11717891_a_at) / Fold change /veh ECM1 (11717891_a_at) / RFU IL23R (11748794_a_at) / Fold change /veh IL23R (11748794_a_at) / RFU TNFAIP8L3 (11732012_x_at) / Fold change /veh TNFAIP8L3 (11732012_x_at) / RFU MBOAT4 (11741988_at) / Fold change /veh MBOAT4 (11741988_at) / RFU 11764193_at / Fold change /veh 11764193_at / RFU TMEM53 (11763286_at) / Fold change /veh TMEM53 (11763286_at) / RFU MAGEB2 (11727129_at) / Fold change /veh MAGEB2 (11727129_at) / RFU TMEM200A (11744735_a_at) / Fold change /veh TMEM200A (11744735_a_at) / RFU CCDC152 (11751479_a_at) / Fold change /veh CCDC152 (11751479_a_at) / RFU FAM211A (11726209_a_at) / Fold change /veh FAM211A (11726209_a_at) / RFU RGS16 (11746705_a_at) / Fold change /veh RGS16 (11746705_a_at) / RFU VCAN (11755009_s_at) / Fold change /veh VCAN (11755009_s_at) / RFU RHOB (11743442_s_at) / Fold change /veh RHOB (11743442_s_at) / RFU RGS16 (11720943_a_at) / Fold change /veh RGS16 (11720943_a_at) / RFU RGS16 (11720944_at) / Fold change /veh RGS16 (11720944_at) / RFU, VPS4B / Fold change vs veh, VPS4B / RFU, CREB1 / Fold change vs veh, CREB1 / RFU, DNAJC13 / Fold change vs veh, DNAJC13 / RFU, GNAQ / Fold change vs veh, GNAQ / RFU, CDK5R1 / Fold change vs veh, CDK5R1 / RFU, ZRANB3 / Fold change vs veh, ZRANB3 / RFU, CUL4A / Fold change vs veh, CUL4A / RFU, CCNY / Fold change vs veh, CCNY / RFU, UFL1 / Fold change vs veh, UFL1 / RFU, COG3 / Fold change vs veh, COG3 / RFU, DIAPH2 / Fold change vs veh, DIAPH2 / RFU, SKA2 / Fold change vs veh, SKA2 / RFU, AFF3 / Fold change vs veh, AFF3 / RFU, LMF1 / Fold change vs veh, LMF1 / RFU, IPO11 / Fold change vs veh, IPO11 / RFU, DFFB / Fold change vs veh, DFFB / RFU, FOXP1 / Fold change vs veh, FOXP1 / RFU, CARD8 / Fold change vs veh, CARD8 / RFU, STRN3 / Fold change vs veh, STRN3 / RFU, ADK / Fold change vs veh, ADK / RFU, RASSF2 / Fold change vs veh, RASSF2 / RFU, WIPF1 / Fold change vs veh, WIPF1 / RFU, LARP1B / Fold change vs veh, LARP1B / RFU, RASA1 / Fold change vs veh, RASA1 / RFU, RB1 / Fold change vs veh, RB1 / RFU, PPFIA1 / Fold change vs veh, PPFIA1 / RFU, MAT2A / Fold change vs veh, MAT2A / RFU, CCT5 / Fold change vs veh, CCT5 / RFU, WDR92 / Fold change vs veh, WDR92 / RFU, CUX1 / Fold change vs veh, CUX1 / RFU, TTC7A / Fold change vs veh, TTC7A / RFU, TMEM135 / Fold change vs veh, TMEM135 / RFU, DEPTOR / Fold change vs veh, DEPTOR / RFU, CPM / Fold change vs veh, CPM / RFU, DNAJB6 / Fold change vs veh, DNAJB6 / RFU, CACNA2D3 / Fold change vs veh, CACNA2D3 / RFU, DTX4 / Fold change vs veh, DTX4 / RFU, TFCP2 / Fold change vs veh, TFCP2 / RFU, GMCL1 /// GMCL1P1 / Fold change vs veh, GMCL1 /// GMCL1P1 / RFU, AEBP2 / Fold change vs veh, AEBP2 / RFU, SNHG1 /// SNORD22 /// SNORD25 /// SNORD26 /// SNORD27 /// SNORD28 /// SNORD29 /// SNORD31 / Fold change vs veh, SNHG1 /// SNORD22 /// SNORD25 /// SNORD26 /// SNORD27 /// SNORD28 /// SNORD29 /// SNORD31 / Fold change (Aza/veh), C12orf56 (ProbeSet 11735607_a_at) / Fold change (ACY-1035/veh), C12orf56 (ProbeSet 11735607_a_at) / Fold change (Aza/veh), FGFR1OP (ProbeSet 11751329_s_at) / Fold change (ACY-1035/veh), FGFR1OP (ProbeSet 11751329_s_at) / Fold change (Aza/veh), VPS36 (ProbeSet 11739960_a_at) / Fold change (ACY-1035/veh), VPS36 (ProbeSet 11739960_a_at) / RFU SYPL1 (11715823_x_at) / Fold change /veh SYPL1 (11715823_x_at) / RFU IGFBP7 (11715501_s_at) / Fold change /veh IGFBP7 (11715501_s_at) / RFU REEP3 (11722064_at) / Fold change /veh REEP3 (11722064_at) / RFU IGLL1 (11728026_x_at) / Fold change /veh IGLL1 (11728026_x_at): dose or concentration left out as unconfirmed",
  "settings": "MV-4-11 cells, 48 hours",
  "data": [
    {"compound": "Nc1ncn([C@@H]2O[C@H](CO)[C@@H](O)[C@H]2O)c(=O)n1", "note": "[azacitidine]", "values": [
      {"measurement": "Fold change /veh RCAN1 (11760418_a_at)", "result": 0.93}
    ]}
  ]
}
